Positions of bridges follow the written chain, without caps; N, C: chain ends. Non-standard residues stand in square brackets, D forms with d. No end group written: not given here.

From patent US20060270019A1, “Method for producing lactic acid bacterium culture containing bacteriocin and a method for preserving food products for by using it” (Ajinomoto Co., Inc., priority 2003, published 2006) come the findings set out here.

What all share (type): cell-based
Test [1] deals with Bacillus subtilis IAM1381. Nature of the test: Bacteriocin as substitute for salt in soy sauce manufacturing process: viable cell count of contaminating bacterium. To be noted: soy sauce koji test, first day of fermentation up to day 7. As for the experimental part: Soybean (10 g) and pure water (10 ml) were individually added into six Erlenmeyer flasks (200-ml volume) and sterilized in an autoclave at 120° C. for 30 minutes. After cooling, 0.04 g of koji mold(Purple 1, NO.1 bacterium for soy sauce) was added, and cultivated statically at 30° C. for 2 days. 40 ml of sterile pure water were added to cultivated sample (Sample No.1), 40 ml of salt solution which adjusted the salt content of the sample to 18% to Sample No.2, 40 ml of a culture supernatant of Lactococcus lactis NCIMB702054 (the bacterium producing nisin Z) to Sample No.3 and 40 ml of a culture supernatant of Weissella sp. AJ110263 (FERM BP-10474) to Sample No.4, 40 ml of a culture supernatant of Pediococcus pentosaseceus JCM5885 to Sample 5 and 40 ml of a culture supernatant of Lactobacillus salivarius JCM1231 to Sample 6. The resulting mixtures were then adjusted to pH 6.5 to 7.0, using 6N hydrochloric acid and 6N NaOH passed through a filter.
200 μl of Bacillus subtilis IAM1381 cultivated in the TSBYE medium by a shaker at 30° C. for 20 hours was additionally inoculated, mixed thoroughly and cultivated at 30° C. On days 1, 2 and 7 of the cultivation, the broth was collected to count the viable cells of Bacillus subtilis IAM1381 on the GAM agar medium (GAM bouillon “NISSUI”, Nissui Pharmaceutical Co., Ltd.). […]

Test [2] deals with Listeria innocua ATCC33090. Put plainly: Aging of ground beef inoculated with Listeria: viable cell count. To be noted: first day of aging up to day 7. The text has this: The broths obtained by cultivating Lactococcus lactis NCIMB702054 (a strain producing NisinZ) and Weissella sp.AJ110263 (FERM BP-10474) in MRS culture media were adjusted to pH 5.5 with sodium hydroxide. Subsequently, the bacteria were removed from the pH adjusted culture liquid by centrifucation to obtain a supernatant. The broths containing lactic acid bacteria and the supernatants were used in the experiment described below.
5 g of ground meat of Black hair Japanese beef were individually put into six aseptic Falcon tubes (Becton Dickinson Co.50-ml volume) and 5 ml of saline were added to the meat(Sample No.1), 5 ml of 18% salt solution to Sample No.2, 5 ml of the supernatant of Lactococcus lactis NCIMB702054 to Sample No.3, 5 ml of the broth of Lactococcus lactis NCIMB702054 to Sample No.4, 5 ml of the supernatant of Weissella sp. AJ110263 to Sample No.5, 5 ml of the broth of Weissella sp. AJ110263 to Sample No.6. Further, Listeria innocua ATCC33090, statically cultivated in TSBYE medium at 37° C. for 24 hours, was added to the samples in the amount of 10^8 cfu/ml and the samples were aged at ambient temperature. The samples aged for one day and seven days were collected to count the viable cells of Listeria innocua ATCC33090 in the Listeria selection medium (Oxoid Inc.).

For test [3], the system named is Lactobacillus sakei strain JCM1157. Put plainly: Inhibitory zone of lactic acid bacteria on MRS agar plate containing protease (Umamizyme G), overlaid with indicator strain. To be noted: Protease 0 U/ml, Nisin A spotted as 10 μl of 1000 IU/ml. Here is the method:
The collected lactic acid bacteria are cultivated in the heretofore described manner. Then, the lactic acid bacteria are inoculated and cultivated for 24 hours on a plate of MRS agar medium to which filtrated Umamizyme G (a protease derived from Aspergillus oryzaeproteases; Amano Enzyme Co) is added. Subsequently, the Lactobacilli AOAC medium (Table 3) into which an indicator strain is initially mixed is overlaid on the plate and cultivated for 24 hours, to form an inhibitory zone of the indicator strain.
Weissella sp. AJ110263 (FERM BP-10474) separated from fermented milk Matsoon and Pediococcus pentosaceus JCM5885, Pediococcus pentosaceus JCM5890, Lactobacillus plantarum JCM1149 and Lactobacillus salivarius obtained from the type cultures were initially cultivated followed by cultivation in the MRS medium (Table 1). […]
Lactococcus lactis NCDO497 (a nisinA producer) and Lactococcus lactis NCIMB702054 (a nisin Z producer) were cultivated in the MRS medium at 30° C. In the same manner as in Example 1, the antimicrobial activity was evaluated, using Lactobacillus sakei strain JCM1157 as an indicator strain.
Additionally, the antimicrobial activity was evaluated, by spotting 10 μl of a 1000 IU/ml solution of Nisin A, ICN Biomedical Inc. instead of using the nisin producer, on the plate of the MRS agar medium.

`[Cl-].[Na+]` [salt, sodium chloride]: in test [1], the “contamination by Bacillus subtilis IAM1381 (in words)” value is listed as “no contamination occurred”. For the same molecule, the “contaminating Listeria innocua ATCC33090 count” value in test [2] is recorded as ≥ 10^5 cfu/ml.

In the case of “Nisin A (I[dehydrobutyrine]SI[dehydroalanine]LCTPGCKTGALMGCNMKTATCHCSIHV[dehydroalanine]K; bridge 23-26, 13-19, 8-11, 25-28, 3-7; not fully specified (residues 3, 8, 13, 23, 25, bridges); UniProt P13068 24-57, looked up) [Nisin A, ICN Biomedical Inc., bacteriocin spotted instead of a nisin producer]”, the “Diameter(mm) of Inhibitory Zone of Strain not producing PRB” value in test [3] came to 30 mm.
